The source of these data is US20240246942A1, “KINASE INHIBITORS FOR THE TREATMENT OF NEURODEGENERATIVE DISEASES” (priority 2020, published 2024).

Common to all, as to assay: biochemical
Assay [1] concerns the target T1, panel of 374 wild-type kinases (Homo sapiens, UniProt O75582).
T1 construct: purchased Reaction Biology Corporation
The note with it: read-out: % Enzyme Activity (relative to DMSO controls), MSK1/RPS6KA5.

For assay [2], the target named is T2, panel of 374 wild-type kinases (Homo sapiens, UniProt O75716).
T2 construct: purchased Reaction Biology Corporation
The settings on record: read-out: % Enzyme Activity (relative to DMSO controls), kinase STK16.

Assay [3] deals with T3, panel of 374 wild-type kinases (Homo sapiens, UniProt Q9HAZ1).
T3 construct: purchased Reaction Biology Corporation
The settings on record: read-out: % Enzyme Activity (relative to DMSO controls), CLK4.

The target in assay [4] is T4, panel of 374 wild-type kinases (Homo sapiens, UniProt P50613).
T4 construct: purchased Reaction Biology Corporation
The settings on record: read-out: % Enzyme Activity (relative to DMSO controls), CDK7/cyclin H.

Assay [5] has as its target T5, panel of 374 wild-type kinases (Homo sapiens, UniProt Q9NRH2).
T5 construct: purchased Reaction Biology Corporation
T5 sequence (Q9NRH2 1-765): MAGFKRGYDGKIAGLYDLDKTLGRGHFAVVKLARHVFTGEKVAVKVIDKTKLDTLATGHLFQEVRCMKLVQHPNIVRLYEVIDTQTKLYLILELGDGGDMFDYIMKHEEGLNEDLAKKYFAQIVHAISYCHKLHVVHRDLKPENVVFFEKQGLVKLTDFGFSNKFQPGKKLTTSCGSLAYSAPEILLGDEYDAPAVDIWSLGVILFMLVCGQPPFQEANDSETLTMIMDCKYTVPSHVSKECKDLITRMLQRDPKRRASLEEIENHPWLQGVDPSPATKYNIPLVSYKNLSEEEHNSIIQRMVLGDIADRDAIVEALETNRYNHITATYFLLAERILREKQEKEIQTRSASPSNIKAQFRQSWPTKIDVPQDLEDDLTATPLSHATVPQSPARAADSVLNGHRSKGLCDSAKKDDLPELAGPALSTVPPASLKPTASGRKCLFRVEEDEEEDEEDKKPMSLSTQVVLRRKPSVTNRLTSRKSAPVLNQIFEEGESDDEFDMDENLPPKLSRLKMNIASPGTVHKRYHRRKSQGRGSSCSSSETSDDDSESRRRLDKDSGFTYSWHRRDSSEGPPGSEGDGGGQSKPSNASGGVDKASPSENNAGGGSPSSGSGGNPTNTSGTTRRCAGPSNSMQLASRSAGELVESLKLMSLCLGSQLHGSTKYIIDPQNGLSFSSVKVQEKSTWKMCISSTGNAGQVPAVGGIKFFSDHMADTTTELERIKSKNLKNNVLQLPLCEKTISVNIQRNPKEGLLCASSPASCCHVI
The settings on record: read-out: % Enzyme Activity (relative to DMSO controls), kinase SNRK.

Assay [6] deals with T6, panel of 374 wild-type kinases (Homo sapiens, UniProt Q16566).
T6 construct: purchased Reaction Biology Corporation
The note with it: read-out: % Enzyme Activity (relative to DMSO controls), CAMK4.

Assay [7] has as its target T7, panel of 374 wild-type kinases (Homo sapiens, UniProt Q92630).
T7 construct: purchased Reaction Biology Corporation
T7 sequence (Q92630 1-601): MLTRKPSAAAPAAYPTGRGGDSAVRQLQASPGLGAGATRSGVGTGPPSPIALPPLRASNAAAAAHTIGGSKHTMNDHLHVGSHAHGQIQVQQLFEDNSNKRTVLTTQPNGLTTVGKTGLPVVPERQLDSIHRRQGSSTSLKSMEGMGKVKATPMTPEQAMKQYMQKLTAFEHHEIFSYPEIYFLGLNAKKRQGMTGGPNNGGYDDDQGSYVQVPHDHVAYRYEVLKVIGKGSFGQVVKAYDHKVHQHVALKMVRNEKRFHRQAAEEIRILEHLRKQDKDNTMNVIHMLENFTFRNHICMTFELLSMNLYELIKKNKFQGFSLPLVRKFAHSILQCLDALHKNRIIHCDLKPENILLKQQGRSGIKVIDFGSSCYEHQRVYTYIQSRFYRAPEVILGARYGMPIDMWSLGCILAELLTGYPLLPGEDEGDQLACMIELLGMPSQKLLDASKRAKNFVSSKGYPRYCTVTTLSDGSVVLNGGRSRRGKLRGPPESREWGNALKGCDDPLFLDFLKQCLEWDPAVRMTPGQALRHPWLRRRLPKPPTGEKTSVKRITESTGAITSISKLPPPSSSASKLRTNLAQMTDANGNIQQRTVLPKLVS
The note with it: read-out: % Enzyme Activity (relative to DMSO controls), DYRK2.

Assay [8] concerns the target T8, panel of 374 wild-type kinases (Homo sapiens, UniProt Q9Y463).
T8 construct: purchased Reaction Biology Corporation
The settings on record: DYRK1B, read-out: % Enzyme Activity (relative to DMSO controls).

Assay [9] deals with T9, panel of 374 wild-type kinases (Homo sapiens, UniProt Q9UPZ9).
T9 construct: purchased Reaction Biology Corporation
T9 sequence (Q9UPZ9 1-632): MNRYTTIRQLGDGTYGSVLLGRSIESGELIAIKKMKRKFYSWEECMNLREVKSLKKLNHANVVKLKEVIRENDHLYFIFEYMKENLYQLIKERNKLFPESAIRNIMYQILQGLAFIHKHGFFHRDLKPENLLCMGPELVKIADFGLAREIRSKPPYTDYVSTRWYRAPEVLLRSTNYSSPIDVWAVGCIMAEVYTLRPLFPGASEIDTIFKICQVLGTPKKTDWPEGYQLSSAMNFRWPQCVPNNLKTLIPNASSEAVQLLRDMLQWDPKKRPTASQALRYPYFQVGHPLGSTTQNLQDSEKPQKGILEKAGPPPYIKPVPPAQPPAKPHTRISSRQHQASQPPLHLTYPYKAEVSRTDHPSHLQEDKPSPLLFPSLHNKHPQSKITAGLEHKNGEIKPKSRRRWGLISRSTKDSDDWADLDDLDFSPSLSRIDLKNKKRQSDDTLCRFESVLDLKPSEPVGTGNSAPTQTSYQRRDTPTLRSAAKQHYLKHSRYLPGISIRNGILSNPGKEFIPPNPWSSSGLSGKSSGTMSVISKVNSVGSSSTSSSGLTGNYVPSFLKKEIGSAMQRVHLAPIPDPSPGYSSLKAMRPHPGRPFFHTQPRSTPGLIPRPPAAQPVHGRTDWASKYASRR
The note with it: read-out: % Enzyme Activity (relative to DMSO controls), LCK2/ICK.

Assay [10] has as its target T10, panel of 374 wild-type kinases (Homo sapiens, UniProt Q9HC98).
T10 construct: purchased Reaction Biology Corporation
The note with it: read-out: % Enzyme Activity (relative to DMSO controls), NEK6.

The target in assay [11] is T11, panel of 374 wild-type kinases (Homo sapiens, UniProt Q14012).
T11 construct: purchased Reaction Biology Corporation
The settings on record: read-out: % Enzyme Activity (relative to DMSO controls), CAMK1a.

T6 sequence (Q16566 whole entry): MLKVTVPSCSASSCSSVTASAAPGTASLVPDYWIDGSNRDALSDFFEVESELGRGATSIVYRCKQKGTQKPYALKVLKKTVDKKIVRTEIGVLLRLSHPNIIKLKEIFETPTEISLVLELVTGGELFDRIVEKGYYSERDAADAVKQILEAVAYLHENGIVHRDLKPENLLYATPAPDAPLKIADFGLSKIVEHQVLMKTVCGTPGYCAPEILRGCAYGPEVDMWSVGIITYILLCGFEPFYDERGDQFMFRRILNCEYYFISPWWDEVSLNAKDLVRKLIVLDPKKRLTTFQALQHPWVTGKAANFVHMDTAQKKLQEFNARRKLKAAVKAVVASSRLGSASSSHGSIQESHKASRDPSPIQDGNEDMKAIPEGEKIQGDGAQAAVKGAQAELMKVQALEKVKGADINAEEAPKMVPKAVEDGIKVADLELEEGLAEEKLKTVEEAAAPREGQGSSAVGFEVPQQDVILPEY
T2 sequence (O75716 whole entry): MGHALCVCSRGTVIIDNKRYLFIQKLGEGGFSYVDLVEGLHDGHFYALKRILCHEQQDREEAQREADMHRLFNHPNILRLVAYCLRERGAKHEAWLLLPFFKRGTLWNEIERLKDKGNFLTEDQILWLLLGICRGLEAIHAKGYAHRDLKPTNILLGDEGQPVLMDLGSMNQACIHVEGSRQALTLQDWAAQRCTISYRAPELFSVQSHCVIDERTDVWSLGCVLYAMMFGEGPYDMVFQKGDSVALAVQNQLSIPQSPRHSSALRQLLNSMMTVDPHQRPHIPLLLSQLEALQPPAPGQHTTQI
T8 sequence (Q9Y463 whole entry): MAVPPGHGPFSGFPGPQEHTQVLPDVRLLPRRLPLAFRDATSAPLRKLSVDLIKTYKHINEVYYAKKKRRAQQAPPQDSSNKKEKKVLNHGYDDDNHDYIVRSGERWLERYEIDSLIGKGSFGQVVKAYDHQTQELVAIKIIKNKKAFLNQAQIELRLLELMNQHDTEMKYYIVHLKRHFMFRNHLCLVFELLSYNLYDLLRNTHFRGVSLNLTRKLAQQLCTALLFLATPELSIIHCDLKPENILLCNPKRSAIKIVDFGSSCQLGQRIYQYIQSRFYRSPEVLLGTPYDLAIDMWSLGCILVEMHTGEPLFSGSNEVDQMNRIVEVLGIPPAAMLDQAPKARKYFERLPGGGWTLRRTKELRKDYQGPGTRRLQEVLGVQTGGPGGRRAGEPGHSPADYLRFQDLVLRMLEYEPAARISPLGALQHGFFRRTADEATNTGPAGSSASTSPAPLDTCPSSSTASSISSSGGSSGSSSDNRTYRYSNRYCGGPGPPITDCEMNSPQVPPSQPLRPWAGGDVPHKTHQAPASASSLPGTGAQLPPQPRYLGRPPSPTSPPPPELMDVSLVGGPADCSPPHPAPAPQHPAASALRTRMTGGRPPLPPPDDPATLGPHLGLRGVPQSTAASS
T10 sequence (Q9HC98 whole entry): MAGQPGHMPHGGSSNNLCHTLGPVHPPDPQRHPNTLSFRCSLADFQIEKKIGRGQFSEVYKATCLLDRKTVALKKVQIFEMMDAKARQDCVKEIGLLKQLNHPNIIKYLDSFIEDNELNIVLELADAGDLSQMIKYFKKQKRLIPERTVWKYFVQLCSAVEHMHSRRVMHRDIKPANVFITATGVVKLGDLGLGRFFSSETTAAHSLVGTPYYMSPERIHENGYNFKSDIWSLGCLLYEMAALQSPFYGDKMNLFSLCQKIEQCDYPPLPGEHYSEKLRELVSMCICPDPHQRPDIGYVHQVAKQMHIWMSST
T1 sequence (O75582 whole entry): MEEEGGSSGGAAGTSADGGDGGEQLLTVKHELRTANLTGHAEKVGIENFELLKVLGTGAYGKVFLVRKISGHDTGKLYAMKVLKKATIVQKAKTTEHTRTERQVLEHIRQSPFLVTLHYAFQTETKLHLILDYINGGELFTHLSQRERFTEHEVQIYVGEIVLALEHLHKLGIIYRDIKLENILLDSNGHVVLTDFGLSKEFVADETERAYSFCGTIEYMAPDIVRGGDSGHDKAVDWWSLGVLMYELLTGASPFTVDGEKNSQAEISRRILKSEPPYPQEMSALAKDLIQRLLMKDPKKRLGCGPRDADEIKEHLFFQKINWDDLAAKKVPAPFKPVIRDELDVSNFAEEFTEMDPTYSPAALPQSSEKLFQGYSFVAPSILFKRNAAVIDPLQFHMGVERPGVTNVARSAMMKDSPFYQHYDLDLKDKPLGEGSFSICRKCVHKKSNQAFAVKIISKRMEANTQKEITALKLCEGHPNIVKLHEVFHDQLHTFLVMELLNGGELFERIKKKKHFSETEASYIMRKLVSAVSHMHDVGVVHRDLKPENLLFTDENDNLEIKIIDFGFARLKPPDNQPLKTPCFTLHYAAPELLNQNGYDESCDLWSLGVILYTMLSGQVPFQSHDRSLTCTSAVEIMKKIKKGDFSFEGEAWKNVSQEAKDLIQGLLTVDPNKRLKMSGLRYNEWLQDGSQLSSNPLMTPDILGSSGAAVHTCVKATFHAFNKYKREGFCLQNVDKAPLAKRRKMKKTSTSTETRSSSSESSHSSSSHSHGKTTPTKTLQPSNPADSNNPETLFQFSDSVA
T3 sequence (Q9HAZ1 whole entry): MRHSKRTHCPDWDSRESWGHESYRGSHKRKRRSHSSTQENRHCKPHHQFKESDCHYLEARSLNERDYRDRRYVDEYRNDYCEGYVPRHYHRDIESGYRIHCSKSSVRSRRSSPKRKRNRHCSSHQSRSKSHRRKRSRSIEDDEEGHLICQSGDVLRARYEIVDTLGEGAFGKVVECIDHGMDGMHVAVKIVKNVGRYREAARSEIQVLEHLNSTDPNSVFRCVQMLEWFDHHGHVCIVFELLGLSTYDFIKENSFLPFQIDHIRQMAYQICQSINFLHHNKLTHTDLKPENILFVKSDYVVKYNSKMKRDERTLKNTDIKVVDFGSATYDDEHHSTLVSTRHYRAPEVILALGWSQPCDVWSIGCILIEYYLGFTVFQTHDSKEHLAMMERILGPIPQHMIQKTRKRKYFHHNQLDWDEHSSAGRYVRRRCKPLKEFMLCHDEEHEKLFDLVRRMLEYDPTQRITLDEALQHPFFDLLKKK
T4 sequence (P50613 whole entry): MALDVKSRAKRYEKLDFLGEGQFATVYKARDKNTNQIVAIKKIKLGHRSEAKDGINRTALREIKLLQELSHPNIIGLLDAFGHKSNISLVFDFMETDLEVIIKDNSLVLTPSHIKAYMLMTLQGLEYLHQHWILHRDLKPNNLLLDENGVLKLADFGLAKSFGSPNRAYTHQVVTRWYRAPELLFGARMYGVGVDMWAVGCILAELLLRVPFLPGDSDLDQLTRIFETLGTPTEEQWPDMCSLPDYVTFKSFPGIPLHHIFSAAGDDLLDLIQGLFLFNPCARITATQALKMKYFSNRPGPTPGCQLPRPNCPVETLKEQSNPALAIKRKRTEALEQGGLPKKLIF
T11 sequence (Q14012 whole entry): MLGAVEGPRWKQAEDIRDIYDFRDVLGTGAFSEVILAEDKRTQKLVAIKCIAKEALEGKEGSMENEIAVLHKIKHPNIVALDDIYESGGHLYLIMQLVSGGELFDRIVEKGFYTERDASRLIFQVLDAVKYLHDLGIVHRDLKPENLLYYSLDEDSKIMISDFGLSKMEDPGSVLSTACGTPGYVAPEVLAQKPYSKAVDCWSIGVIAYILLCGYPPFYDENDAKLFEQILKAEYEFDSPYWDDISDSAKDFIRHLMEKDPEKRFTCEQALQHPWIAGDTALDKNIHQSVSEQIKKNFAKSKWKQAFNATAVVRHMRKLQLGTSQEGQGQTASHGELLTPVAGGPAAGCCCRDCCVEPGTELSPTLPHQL

Turning to `Cc1sc(C(=O)NC2COC2)cc1-n1cc(NC(=O)Nc2c(F)cccc2Cl)cn1` [Compound 27, 4-(4-(3-(2-chloro-6-fluorophenyl)ureido)-1H-pyrazol-1-yl)-5-methyl-N-(oxetan-3-yl)thiophene-2-carboxamide], the remaining activity at 10 µM in assay [1] (10 uM) came to 111%; in assay [2] (10 uM), 94.4%; in [3] (10 uM) it was 102%; in assay [4] (10 uM), 103%; in assay [5] (10 uM), 102%; in assay [6] (10 uM) it was 98.5%. Further, the remaining activity at 10 µM in [7] (10 uM) was 96.3%; in assay [8] (10 uM), 105%; in assay [9] (10 uM), 100%; in [10] (10 uM), 93.3%; in assay [11] (10 uM), 115%.
Take `O=C(Nc1cnn(-c2csc(C(=O)NC3COC3)c2)c1)Nc1c(F)cccc1Cl` [Compound 25, 4-(4-(3-(2-chloro-6-fluorophenyl)ureido)-1H-pyrazol-1-yl)-N-(oxetan-3-yl)thiophene-2-carboxamide]: the remaining activity at 5 µM is 104% in assay [1]; 107% in [2]; 93.2% in assay [3]; 95.8% in assay [4]; 98.8% in [5]; 98.7% in assay [6]. Moreover, the remaining activity at 5 µM in assay [7] is 93.6%; in [8] it was 82.8%; in assay [9], 101%; in [10], 87.2%; in assay [11] it was 98%.
In the case of `O=C(Nc1cnn(-c2csc(C(=O)NC3COC3)c2)c1)Nc1ccccc1Cl` [Compound 17, 4-(4-(3-(2-chlorophenyl)ureido)-1H-pyrazol-1-yl)-N-(oxetan-3-yl)thiophene-2-carboxamide], the remaining activity at 5 µM in assay [1] was 89.5%; in assay [2], 98.6%; in assay [3], 66%; in assay [4], 99.7%; in [5] it was 96.8%; in assay [6] it was 114%. Further, the remaining activity at 5 µM was determined as 88.2% in [7]; 87% in assay [8]; 112% in assay [9]; 103% in assay [10]; 87.1% in assay [11].
